Our source for the IC50 values is US8178570B2, “Tie-2 modulators and methods of use” (Exelixis, Inc., priority 2003, dated 2012).

Where only a bound is given, the exact number is not on record here.

Sequence of Tie-2 (Q02763 23-1124): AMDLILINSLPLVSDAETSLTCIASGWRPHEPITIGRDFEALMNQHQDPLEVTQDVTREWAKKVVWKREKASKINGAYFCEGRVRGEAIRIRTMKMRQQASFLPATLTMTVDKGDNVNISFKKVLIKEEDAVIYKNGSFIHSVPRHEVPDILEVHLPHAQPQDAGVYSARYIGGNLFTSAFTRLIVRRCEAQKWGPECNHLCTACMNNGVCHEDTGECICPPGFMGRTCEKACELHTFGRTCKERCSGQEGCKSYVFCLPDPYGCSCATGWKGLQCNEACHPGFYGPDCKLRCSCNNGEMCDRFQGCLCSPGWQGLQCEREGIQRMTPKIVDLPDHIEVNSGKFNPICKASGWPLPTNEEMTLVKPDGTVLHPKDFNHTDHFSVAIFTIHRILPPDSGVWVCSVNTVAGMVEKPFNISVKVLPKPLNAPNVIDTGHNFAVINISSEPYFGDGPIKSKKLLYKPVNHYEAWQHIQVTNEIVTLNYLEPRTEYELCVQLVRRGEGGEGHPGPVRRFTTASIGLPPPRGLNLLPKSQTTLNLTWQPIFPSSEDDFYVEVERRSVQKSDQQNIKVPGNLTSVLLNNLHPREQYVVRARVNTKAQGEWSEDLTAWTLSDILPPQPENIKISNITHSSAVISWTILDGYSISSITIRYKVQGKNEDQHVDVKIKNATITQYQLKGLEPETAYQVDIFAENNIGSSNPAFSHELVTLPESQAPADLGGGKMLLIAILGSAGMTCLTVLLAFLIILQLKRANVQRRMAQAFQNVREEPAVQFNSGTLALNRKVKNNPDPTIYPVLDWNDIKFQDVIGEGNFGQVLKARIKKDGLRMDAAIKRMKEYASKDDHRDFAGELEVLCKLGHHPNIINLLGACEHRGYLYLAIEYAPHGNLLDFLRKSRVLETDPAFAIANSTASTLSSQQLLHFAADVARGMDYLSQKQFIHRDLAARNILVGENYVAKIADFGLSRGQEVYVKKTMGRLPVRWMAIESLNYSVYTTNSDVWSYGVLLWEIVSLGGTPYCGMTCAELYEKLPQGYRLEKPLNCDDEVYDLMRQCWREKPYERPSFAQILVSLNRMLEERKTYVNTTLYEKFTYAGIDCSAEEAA

The assay has as its target Tie-2 (Homo sapiens, UniProt Q02763). As to the kind of experiment: Tie-2 tyrosine kinase activity: kinase-dependent ATP consumption (pEY substrate, luciferase/luciferin chemiluminescence) or 33P-ATP incorporation into substrate. Format: biochemical. The conditions noted are these: Tie-2 (human enzyme) inhibition, Table 2, class symbols A-D. The method, then:
One measure of inhibition is Ki. […] The Ki for a compound is determined from the IC50 based on three assumptions. First, only one compound molecule binds to the enzyme and there is no cooperativity. […] Third, the enzymatic rate of the enzyme-inhibitor complex is zero. The rate (i.e., compound concentration) data are fitted to the equation:
[formula] where V is the observed rate, Vmax, is the rate of the free enzyme, I0 is the inhibitor concentration, E0 is the enzyme concentration, and Kd is the dissociation constant of the enzyme-inhibitor complex.
Tyrosine kinase activity is determined by 1) measurement of kinase-dependent ATP consumption by in the presence of a generic substrate such as polyglutamine, tyrosine (pEY), by luciferase/luciferin-mediated chemiluminescence or; 2) incorporation of radioactive phosphate derived from ^33P-ATP into a generic substrate which has been absorbed onto the well surface of polystyrene microtiter plates. Phosphorylated substrate products are quantified by scintillation spectrometry.
Inhibition is indicated as IC50 with following key: A=IC50 less than 50 nM, B=IC50 greater than 50 nM, but less than or equal to 1000 nM, C=IC50 greater than 1000 nM, but less than 10,000 nM, and D=IC50 10,000 nM or greater. The abbreviation for human enzyme, Tie-2, is defined as tyrosine kinase with immunoglobulin and EGF repeats.
As for `O=C(Cc1cccc2ccccc12)N(CCn1nc(-c2ccncc2)nc1-c1ccc(O)c(Cl)c1)C1CCCC1` [Entry 1, N-{2-[5-(3-chloro-4-hydroxyphenyl)-3-pyridin-4-yl-1H-1,2,4-triazol-1-yl]ethyl}-N-cyclopentyl-2-naphthalen-1-ylacetamide], the IC50 is less than 0.05 µM.

Turning to `CCOC(=O)Cn1nc(-c2ccncc2)nc1-c1ccc(OC)c(Cl)c1` [Entry 2, ethyl {5-[3-chloro-4-(methyloxy)phenyl]-3-pyridin-4-yl-1H-1,2,4-triazol-1-yl}acetate], the IC50 was no less than 10 µM. Compound `COc1ccc(-c2nc(-c3ccncc3)nn2CC(=O)NC2CCCC2)cc1Cl` [Entry 3, 2-{5-[3-chloro-4-(methyloxy)phenyl]-3-pyridin-4-yl-1H-1,2,4-triazol-1-yl}-N-cyclopentylacetamide] gave an IC50 of no less than 10 µM.

The compound `CCOC(=O)Cn1nc(-c2ccc(OC)c(Cl)c2)nc1-c1ccncc1` [Entry 4, ethyl {3-[3-chloro-4-(methyloxy)phenyl]-5-pyridin-4-yl-1H-1,2,4-triazol-1-yl}acetate] yielded an IC50 of no less than 10 µM. The compound `COc1ccc(-c2nc(-c3ccncc3)n(CC(=O)NC3CCCC3)n2)cc1Cl` [Entry 5, 2-{3-[3-chloro-4-(methyloxy)phenyl]-5-pyridin-4-yl-1H-1,2,4-triazol-1-yl}-N-cyclopentylacetamide] displayed an IC50 of no less than 10 µM. Compound `COC(=O)CCn1nc(-c2ccncc2)nc1-c1ccc(OC)c(Cl)c1` [Entry 6, methyl 3-{5-[3-chloro-4-(methyloxy)phenyl]-3-pyridin-4-yl-1H-1,2,4-triazol-1-yl}propanoate] yielded an IC50 of no less than 10 µM.

With `COC(=O)CCn1nc(-c2ccc(OC)c(Cl)c2)nc1-c1ccncc1` [Entry 7, methyl 3-{3-[3-chloro-4-(methyloxy)phenyl]-5-pyridin-4-yl-1H-1,2,4-triazol-1-yl}propanoate], the half-maximal inhibitory concentration (IC50) was no less than 10 µM.

In the case of `COc1ccc(-c2nc(-c3ccncc3)nn2CCCN(C(=O)Cc2cccc3ccccc23)C2CCCC2)cc1Cl` [Entry 8, N-(3-{5-[3-chloro-4-(methyloxy)phenyl]-3-pyridin-4-yl-1H-1,2,4-triazol-1-yl}propyl)-N-cyclopentyl-2-naphthalen-1-ylacetamide], the IC50 is no less than 10 µM. To `COc1ccc(-c2nc(-c3ccncc3)n(CCCN(C(=O)Cc3cccc4ccccc34)C3CCCC3)n2)cc1Cl` [Entry 9, N-(3-{3-[3-chloro-4-(methyloxy)phenyl]-5-pyridin-4-yl-1H-1,2,4-triazol-1-yl}propyl)-N-cyclopentyl-2-naphthalen-1-ylacetamide] belongs no less than 10 µM; to `COc1ccc(-c2nc(-c3ccncc3)nn2CCN(C(=O)Cc2cccc3ccccc23)C2CCCC2)cc1Cl` [Entry 10, N-(2-{5-[3-chloro-4-(methyloxy)phenyl]-3-pyridin-4-yl-1H-1,2,4-triazol-1-yl}ethyl)-N-cyclopentyl-2-naphthalen-1-ylacetamide], less than 0.05 µM; to `O=C(Cc1cccc2ccccc12)N(CCn1nc(-c2ccc(O)c(Cl)c2)nc1-c1ccncc1)C1CCCC1` [Entry 11, N-{2-[3-(3-chloro-4-hydroxyphenyl)-5-pyridin-4-yl-1H-1,2,4-triazol-1-yl]ethyl}-N-cyclopentyl-2-naphthalen-1-ylacetamide], 0.05 to 1 µM.

`COc1ccc(-c2nc(-c3cccnc3)n(CC(=O)NC3CCCC3)n2)cc1Cl` [Entry 12, 2-{3-[3-chloro-4-(methyloxy)phenyl]-5-pyridin-3-yl-1H-1,2,4-triazol-1-yl}-N-cyclopentylacetamide] gave an IC50 of no less than 10 µM. The result for `COc1ccc(-c2nc(-c3cccnc3)nn2CCN(C(=O)Cc2cccc3ccccc23)C2CCCC2)cc1Cl` [Entry 13, N-(2-{5-[3-chloro-4-(methyloxy)phenyl]-3-pyridin-3-yl-1H-1,2,4-triazol-1-yl}ethyl)-N-cyclopentyl-2-naphthalen-1-ylacetamide] reads no less than 10 µM; that for `CCOC(=O)Cn1nc(-c2ccncc2)nc1-c1ccc([N+](=O)[O-])cc1` [Entry 14, ethyl [5-(4-nitrophenyl)-3-pyridin-4-yl-1H-1,2,4-triazol-1-yl]acetate], no less than 10 µM; that for `CCOC(=O)Cn1nc(-c2ccncc2)nc1-c1cc(Cl)cc(Cl)c1` [Entry 15, ethyl [5-(3,5-dichlorophenyl)-3-pyridin-4-yl-1H-1,2,4-triazol-1-yl]acetate], no less than 10 µM. `CCOC(=O)Cn1nc(-c2cc(Cl)cc(Cl)c2)nc1-c1ccncc1` [Entry 16, ethyl [3-(3,5-dichlorophenyl)-5-pyridin-4-yl-1H-1,2,4-triazol-1-yl]acetate] came in with an IC50 of no less than 10 µM. `O=C(Cc1cccc2ccccc12)N(CCn1nc(-c2ccncc2)nc1-c1ccco1)C1CCCC1` [Entry 17, N-cyclopentyl-N-[2-(5-furan-2-yl-3-pyridin-4-yl-1H-1,2,4-triazol-1-yl)ethyl]-2-naphthalen-1-ylacetamide]: the IC50 is less than 0.05 µM.

`O=C(Cc1cccc2ccccc12)N(CCn1nc(-c2ccco2)nc1-c1ccncc1)C1CCCC1` [Entry 18, N-cyclopentyl-N-[2-(3-furan-2-yl-5-pyridin-4-yl-1H-1,2,4-triazol-1-yl)ethyl]-2-naphthalen-1-ylacetamide] had an IC50 of 0.05 to 1 µM.

Compound `O=C(Cc1cccc2ccccc12)N(CCn1nc(-c2cccs2)nc1-c1ccncc1)C1CCCC1` [Entry 19, N-cyclopentyl-2-naphthalen-1-yl-N-{2-[5-pyridin-4-yl-3-(2-thienyl)-1H-1,2,4-triazol-1-yl]ethyl}acetamide] yielded an IC50 of 0.05 to 1 µM. `COc1ccc(-c2nc(-c3ccncc3)nn2CCN(C(=O)c2cccc3ccccc23)C2CCCC2)cc1Cl` [Entry 20, N-(2-{5-[3-chloro-4-(methyloxy)phenyl]-3-pyridin-4-yl-1H-1,2,4-triazol-1-yl}ethyl)-N-cyclopentylnaphthalene-1-carboxamide]: the IC50 fell in the range of 1 to 10 µM. Turning to `COc1ccc(-c2nc(-c3ccncc3)nn2CCN(C(=O)c2ccc3ccccc3c2)C2CCCC2)cc1Cl` [Entry 21, N-(2-{5-[3-chloro-4-(methyloxy)phenyl]-3-pyridin-4-yl-1H-1,2,4-triazol-1-yl}ethyl)-N-cyclopentylnaphthalene-2-carboxamide], the IC50 was no less than 10 µM. In turn, `COc1cccc(-c2nc(-c3ccncc3)nn2CCN(C(=O)Cc2cccc3ccccc23)C2CCCC2)c1` [Entry 22, N-cyclopentyl-N-(2-{5-[3-(methyloxy)phenyl]-3-pyridin-4-yl-1H-1,2,4-triazol-1-yl}ethyl)-2-naphthalen-1-ylacetamide] had an IC50 of less than 0.05 µM.

In the case of `COc1cccc(-c2nc(-c3ccncc3)n(CCN(C(=O)Cc3cccc4ccccc34)C3CCCC3)n2)c1` [Entry 23, N-cyclopentyl-N-(2-{3-[3-(methyloxy)phenyl]-5-pyridin-4-yl-1H-1,2,4-triazol-1-yl}ethyl)-2-naphthalen-1-ylacetamide], the IC50 was 0.05 to 1 µM.

The compound `COc1ccc(-c2nc(-c3ccncc3)nn2CCCCN(C(=O)Cc2cccc3ccccc23)C2CCCC2)cc1Cl` [Entry 24, N-(4-{5-[3-chloro-4-(methyloxy)phenyl]-3-pyridin-4-yl-1H-1,2,4-triazol-1-yl}butyl)-N-cyclopentyl-2-naphthalen-1-ylacetamide] registered an IC50 of 1 to 10 µM. `COc1ccc(-c2nc(-c3ccncc3)n(CCCCN(C(=O)Cc3cccc4ccccc34)C3CCCC3)n2)cc1Cl` [Entry 25, N-(4-{3-[3-chloro-4-(methyloxy)phenyl]-5-pyridin-4-yl-1H-1,2,4-triazol-1-yl}butyl)-N-cyclopentyl-2-naphthalen-1-ylacetamide] showed a 50% inhibitory concentration (IC50) of no less than 10 µM. With `COc1ccc(-c2nc(-c3ccncc3)nn2CCN(C(=O)c2ccccc2)C2CCCC2)cc1Cl` [Entry 26, N-(2-{5-[3-chloro-4-(methyloxy)phenyl]-3-pyridin-4-yl-1H-1,2,4-triazol-1-yl}ethyl)-N-cyclopentylbenzamide], the IC50 was no less than 10 µM. Take `COc1ccc(-c2nc(-c3ccncc3)n(CCN(C(=O)c3ccccc3)C3CCCC3)n2)cc1Cl` [Entry 27, N-(2-{3-[3-chloro-4-(methyloxy)phenyl]-5-pyridin-4-yl-1H-1,2,4-triazol-1-yl}ethyl)-N-cyclopentylbenzamide]: the IC50 was no less than 10 µM.

As to `COc1ccc(-c2nc(-c3ccncc3)nn2CCN(C(=O)c2ccnc3ccccc23)C2CCCC2)cc1Cl` [Entry 28, N-(2-{5-[3-chloro-4-(methyloxy)phenyl]-3-pyridin-4-yl-1H-1,2,4-triazol-1-yl}ethyl)-N-cyclopentylquinoline-4-carboxamide], the IC50 was no less than 10 µM. For `COc1ccc(-c2nc(-c3ccncc3)nn2CCN(C(=O)Nc2cccc3ccccc23)C2CCCC2)cc1Cl` [Entry 29, N-(2-{5-[3-chloro-4-(methyloxy)phenyl]-3-pyridin-4-yl-1H-1,2,4-triazol-1-yl}ethyl)-N-cyclopentyl-N′-naphthalen-1-ylurea], the IC50 is less than 0.05 µM. `COc1ccc(-c2nc(-c3ccncc3)nn2CCN(C(=O)Nc2ccccc2)C2CCCC2)cc1Cl` [Entry 30, N-(2-{5-[3-chloro-4-(methyloxy)phenyl]-3-pyridin-4-yl-1H-1,2,4-triazol-1-yl}ethyl)-N-cyclopentyl-N′-phenylurea]: the IC50 was no less than 10 µM. `COc1ccc(-c2nc(-c3ccncc3)nn2CCN(C(=O)Cc2ccccc2)C2CCCC2)cc1Cl` [Entry 31, N-(2-{5-[3-chloro-4-(methyloxy)phenyl]-3-pyridin-4-yl-1H-1,2,4-triazol-1-yl}ethyl)-N-cyclopentyl-2-phenylacetamide]: the IC50 is 1 to 10 µM.

The term IC50 denotes the concentration that inhibits the measured activity by half. Read a high IC50 as lower potency.
